Experimental data published in patent US7687473B2, “5-amino-4-imidazolecarboxamide riboside and its nucleobase as potentiators of antifolate transport and metabolism” (Health Research, Inc., priority 2005, dated 2010).
Values belong to the compound of their own block, whether it stands above or below them.

Experiments:
CCRF-CEM cells [1] = experiment: [3H]MTX uptake (initial velocity and 30 min accumulation) in CCRF-CEM cells; format: cell-based, human
Procedure: (§1) Quantitation of folate and antifolate uptake. The method is essentially as follows. Briefly, logarithmically growing (3-5×10^5/ml) CCRF-CEM cells were harvested at room temperature by centrifugation at 1000×g for 5 min. After washing with the appropriate medium, cells were suspended at ≈2×10^7 cells/ml for use in transport studies. […] Anion-free MHS contains 250 mM sucrose and 20 mM HEPES, titrated to pH 7.4 with MgO. […] Uptake was measured as a function of time for 30 min (for rate and extent measurements) or over 5 min (studies requiring initial velocities). […] Uptake was terminated by diluting 100 μL samples into 1 ml of iced 0.9% NaCl. […] The supernatant was aspirated. The cell pellet was washed once with 1 ml iced 0.9% NaCl and centrifuged as above. The washed pellet was solubilized in 1 ml of 0.3% Triton X-100 by incubation for 60 min at 37° C. The solubilized pellet was transferred to a scintillation vial, 10 ml of Liquiscint (National Diagnostics, Atlanta, Ga.) was added and radioactivity was quantitated in a Beckman Model LS6500 liquid scintillation counter. Separate samples at the longest incubation time used in a particular experiment were harvested for HPLC analysis of intracellular contents as above, except that after the second wash the pellets were extracted with 1 ml boiling 0.1 M Na-phosphate, pH 5.5. The extract was clarified by centrifugation and the supernatant was filtered through an MPS-1 filter unit (Amicon) prior to HPLC analysis.

CCRF-CEM = details: 10 μg/ml, within 5 min; cited from earlier work
CCRF-CEM cells [2] = experiment: Effect of protein kinase inhibitors on [3H]MTX uptake; format: cell-based, human
From the text: To determine whether protein phosphorylation is involved in the mechanism of Z potentiation, we began studies with a series of protein kinase (PK) inhibitors (PKI).

CCRF-CEM cells [3] = experiment: Subcellular localization of [3H]MTX; format: cell-based, human; details: 30 min uptake of 2 μM [3H]MTX; 2 μM TMTX, 500 μM Z
Procedure: Subcellular fractionation. […] Cells were diluted 9-fold in iced 0.9% NaCl, centrifuged at 1000×g for 5 min and washed once with 40 ml iced saline. All subsequent steps were performed at 4°. Cells were homogenized as previously described, except that hypotonic buffer at 20-fold the packed cell volume was used, and the homogenate was centrifuged for 6 min at 1000×g to yield a nuclear pellet (also containing unlysed cells and large debris) and a post-nuclear supernatant (PNS). Based on controls using nonradiolabeled cells, >91% of the cells would be lysed during homogenization. The PNS was centrifuged at 17,000×g to yield a combined mitochondria-lysosome pellet. The resulting supernatant was centrifuged at 100,000×g for 60 min to yield the 100,000×g supernatant (cytosol). The 100,000×g pellet (microsomes) and the combined mitochondria-lysosome pellet were each washed in isotonic buffer and centrifuged at their respective g-forces. All pellets were solubilized in 0.3% Triton X-100 by incubating at 37° for 1 hr; 1 ml was transferred to a scintillation vial for quantitation. Triton X-100 was added to the cytosol to a final concentration of 0.3% and a 1 ml aliquot was quantitated. Radioactivity in each fraction was corrected for a blank containing 0.3% Triton X-100.

[4] = target: T1, reduced folate carrier (RFC) (Homo sapiens, UniProt P41440); experiment: Kinetic constants for influx of [3H]MTX by CCRF-CEM cells; format: cell-based; details: influx of [3H]MTX; pre-incubation with solvent (MTX alone), 1 μM TMTX, or 1 μM TMTX + 0.5 mM Z
T1 construct: endogenous in cells; host or cells: CCRF-CEM (parental)
T1 sequence (P41440 1-591): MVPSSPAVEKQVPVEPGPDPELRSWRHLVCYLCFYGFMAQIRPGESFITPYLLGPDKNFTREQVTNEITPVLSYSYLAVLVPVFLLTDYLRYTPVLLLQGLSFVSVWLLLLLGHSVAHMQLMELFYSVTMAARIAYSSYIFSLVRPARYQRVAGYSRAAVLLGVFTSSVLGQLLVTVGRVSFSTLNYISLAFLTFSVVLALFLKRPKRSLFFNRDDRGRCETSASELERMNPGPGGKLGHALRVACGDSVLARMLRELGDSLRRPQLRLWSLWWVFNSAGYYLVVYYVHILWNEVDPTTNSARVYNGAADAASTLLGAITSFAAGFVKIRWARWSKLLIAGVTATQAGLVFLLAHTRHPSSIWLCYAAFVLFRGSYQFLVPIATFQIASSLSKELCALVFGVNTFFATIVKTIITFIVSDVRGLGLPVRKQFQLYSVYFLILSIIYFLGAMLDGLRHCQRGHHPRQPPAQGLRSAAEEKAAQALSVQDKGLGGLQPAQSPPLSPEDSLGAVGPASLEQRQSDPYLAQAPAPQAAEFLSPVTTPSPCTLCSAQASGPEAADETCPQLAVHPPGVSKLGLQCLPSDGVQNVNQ
Procedure: as §1
Inhibition of the vi of uptake was measured after pre-incubation of CCRF-CEM cells either with TMTX alone (measuring inhibition at the RFC) or with TMTX+Z (measuring inhibition during Z potentiation). […] All studies were carried out in standard transport medium. Inhibitory potency was measured in two series of experiments and AMT was included in each series as an internal control. Values are average±range of two determinations. […] Values are average±range for duplicate determinations.

CCRF-CEM cells [5] = experiment: [3H]leucovorin uptake in CCRF-CEM cells; format: cell-based, human; details: 1 μM [3H]LV; 10 min preincubation, 1 μM TMTX, 0.5 mM Z
Procedure: as §1

Compound: C[C@@H]1C[C@@H]([C@H](O)CC2CC(=O)NC(=O)C2)C(=O)[C@@H](C)C1 [CHX, cycloheximide]
- Potentiation of [3H]MTX influx by 0.5 mM Z after protein synthesis inhibition (CCRF-CEM cells [1]; 10 μg/ml CHX preincubated 10 min, Z added for last 5 min): potentiation still occurred
- Inhibition of protein synthesis (CCRF-CEM): completely inhibited

Compound: O=c1c(O)c(-c2ccc(O)c(O)c2)oc2cc(O)cc(O)c12 [Quercetin, quercetin]
- Decrease of 30 min accumulation +TMTX+Z (CCRF-CEM cells [2]; 50 μM): 21%
- Decrease of initial influx rate (CCRF-CEM cells [2]; 50 μM): 43%
- Decrease of 30 min accumulation +TMTX+Z (CCRF-CEM cells [2]; 100 μM): 38%
- Decrease of initial influx rate (CCRF-CEM cells [2]; 100 μM): 55%
- Increase of uptake +TMTX at 30 min (CCRF-CEM cells [2]; 50 or 100 μM): 10-12%

- Relative radioactivity, Microsomes (CCRF-CEM cells [3]): 0.2%
- [3H]MTX/fraction, Microsomes (CCRF-CEM cells [3]): 0.7 pmol
- Kt [4]: 5.3 ± 0.6 µM
- Vmax [4]: 7.2 ± 0.6 pmol/min/10^7 cells
- Vmax/Kt [4]: 1.36
Compound: COc1cc(NCc2ccc3nc(N)nc(N)c3c2C)cc(OC)c1OC [TMTX, trimetrexate]
- Relative radioactivity, Cytosol (CCRF-CEM cells [3]): 88.9%
- Relative radioactivity, Mito-Lysosomes (CCRF-CEM cells [3]): 0.4%
- Relative radioactivity, Nuclear Pellet (CCRF-CEM cells [3]): 10.5%
- Total [3H]MTX recovered in all four fractions (CCRF-CEM cells [3]): 338.4 pmol
- [3H]MTX/fraction, Cytosol (CCRF-CEM cells [3]): 300.3 pmol
- [3H]MTX/fraction, Mito-Lysosomes (CCRF-CEM cells [3]): 1.3 pmol
- [3H]MTX/fraction, Nuclear Pellet (CCRF-CEM cells [3]): 35.5 pmol
- Extent of [3H]MTX accumulation at 30 min relative to absence of TMTX (CCRF-CEM cells [1]; 10 min preincubation with 2 μM TMTX, no Z): 90-100%
- Increase in 30 min accumulation (extent) of [3H]LV (CCRF-CEM cells [5]): 1.6 fold
- Increase in vi of [3H]LV uptake (CCRF-CEM cells [5]): 1.4 fold
